From ChEMBL document CHEMBL1143413, “Synergistic effect of posaconazole and caspofungin against clinical zygomycetes” (Antimicrob Agents Chemother, 2007)
In brackets after ≈: the same amount, converted by molar mass.

Assays:
Rhizopus [1] = experiment: Antifungal activity against Rhizopus strain 3 zygomycota by conventional morphological method; type: functional
Mucor [2] = experiment: Antifungal activity against Mucor strain 43 zygomycota by conventional morphological method; type: functional
Mucor [3] = experiment: Antifungal activity against Mucor strain 39 zygomycota by conventional morphological method; type: functional
Absidia [4] = experiment: Antifungal activity against Absidia strain 17 zygomycota by conventional morphological method; type: functional
Rhizomucor = experiment: Antifungal activity against Rhizomucor sp. strain 25 zygomycota by conventional morphological method; type: functional
Mucor [5] = experiment: Antifungal activity against Mucor strain 28 zygomycota by conventional morphological method; type: functional
Rhizopus [6] = experiment: Antifungal activity against Rhizopus strain 0 zygomycota by conventional morphological method; type: functional
Cunninghamella = experiment: Antifungal activity against Cunninghamella sp. strain 12 zygomycota by conventional morphological method; type: functional
Absidia [7] = experiment: Antifungal activity against Absidia strain 11 zygomycota by conventional morphological method; type: functional
Rhizopus [8] = experiment: Antifungal activity against Rhizopus strain 8 zygomycota by conventional morphological method; type: functional
Absidia [9] = experiment: Antifungal activity against Absidia strain 18 zygomycota by conventional morphological method; type: functional
Syncephalastrum = experiment: Antifungal activity against Snycephalastrum sp. strain 23 zygomycota by conventional morphological method; type: functional
[10] = Toxicity in invasive zygomycosis diseased patient assessed as mortality; type: organism-based; settings: human, in vivo; read-out: Activity

| SMILES | MIC (Rhizopus [1]) [µg/mL] | MIC (Mucor [2]) [µg/mL] | MIC (Mucor [3]) [µg/mL] | MIC (Absidia [4]) [µg/mL] | MIC (Rhizomucor) [µg/mL] | MIC (Mucor [5]) [µg/mL] | MIC (Rhizopus [6]) [µg/mL] | MIC (Cunninghamella) [µg/mL] | MIC (Absidia [7]) [µg/mL] | MIC (Rhizopus [8]) [µg/mL] | MIC (Absidia [9]) [µg/mL] | MIC (Syncephalastrum) [µg/mL] | mortality [10] [%] |
| --- | --- | --- | --- | --- | --- | --- | --- | --- | --- | --- | --- | --- | --- |
| CC[C@H](C)C[C@H](C)CCCCCCCCC(=O)N[C@H]1C[C@@H](O)[C@@H](NCCN)NC(=O)[C@@H]2[C@@H](O)CCN2C(=O)[C@H]([C@H](O)CCN)NC(=O)[C@H]([C@H](O)[C@@H](O)c2ccc(O)cc2)NC(=O)[C@@H]2C[C@@H](O)CN2C(=O)[C@H]([C@@H](C)O)NC1=O [CASPOFUNGIN] | > 256 | 256 (≈ 234 µM) | > 256 | > 256 | 128 (≈ 117 µM) | 256 (≈ 234 µM) | > 256 | > 256 | > 256 | > 256 | > 256 | > 256 |  |
| CC[C@@H]([C@H](C)O)n1ncn(-c2ccc(N3CCN(c4ccc(OC[C@@H]5CO[C@@](Cn6cncn6)(c6ccc(F)cc6F)C5)cc4)CC3)cc2)c1=O [POSACONAZOLE] | 1 (≈ 1.43 µM) | 0.5 (≈ 0.713 µM) | 1 (≈ 1.43 µM) | 1 (≈ 1.43 µM) | 2 (≈ 2.85 µM) | 0.5 (≈ 0.713 µM) | 1 (≈ 1.43 µM) | 1 (≈ 1.43 µM) | 1 (≈ 1.43 µM) | 1 (≈ 1.43 µM) | 0.5 (≈ 0.713 µM) | 1 (≈ 1.43 µM) | 30 |
